Assay results: PubChem BioAssay (NCI)
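Growth conditions: 96-well plates. Treatment: test compound, 48 hours, 5 concentrations. Analysis: linear interpolation between bracketing concentrations; unreached endpoints set to highest concentration. GI50 marks 50% less growth. TGI: total growth inhibition.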

How the values were obtained:
Experiment in all cases: NCI anticancer screen, dose series, 48 h
[1] = system: MCF7 breast
[2] = system: ACHN renal
[3] = system: NCI-H460 lung
[4] = system: SK-OV-3 ovarian
[5] = system: HL-60(TB) leukemia
[6] = system: CCRF-CEM leukemia
[7] = system: 786-0 renal
[8] = system: IGROV1 ovarian
[9] = system: SR leukemia
[10] = system: PC-3 prostate
[11] = system: NCI-H522 lung
[12] = system: HCT-116 colon
[13] = system: K-562 leukemia
[14] = system: NCI-H226 lung
[15] = system: LOX IMVI melanoma
[16] = system: UO-31 renal
[17] = system: OVCAR-4 ovarian
[18] = system: SW-620 colon
[19] = system: RPMI-8226 leukemia
[20] = system: HCT-15 colon
[21] = system: HT29 colon
[22] = system: U251 CNS
[23] = system: KM12 colon
[24] = system: SNB-19 CNS
[25] = system: SNB-75 CNS
[26] = system: SF-268 CNS
[27] = system: A498 renal
[28] = system: MALME-3M melanoma
[29] = system: HOP-92 NSCLC
[30] = system: HS 578T breast
[31] = system: COLO 205 colon
[32] = system: UACC-257 melanoma
[33] = system: HCC-2998 colon
[34] = system: NCI-H23 lung
[35] = system: RXF 393 renal
[36] = system: SF-539 CNS
[37] = system: OVCAR-8 ovarian
[38] = system: MDA-MB-435
[39] = system: OVCAR-3 ovarian
[40] = system: NCI/ADR-RES ovarian
[41] = system: EKVX NSCLC
[42] = system: UACC-62 melanoma
[43] = system: MOLT-4 leukemia
[44] = system: SN12C renal
[45] = system: SK-MEL-28 melanoma
[46] = system: SK-MEL-2 melanoma
[47] = system: MDA-MB-231 breast
[48] = system: M14 melanoma
[49] = system: T-47D breast
[50] = system: BT-549 breast
[51] = system: CAKI-1 renal
[52] = system: TK-10 renal
[53] = system: OVCAR-5 ovarian
[54] = system: SK-MEL-5 melanoma
[55] = system: HOP-62 NSCLC
[56] = system: A549 NSCLC
[57] = system: SF-295 CNS
[58] = system: DU-145 prostate

CN1CCN(c2nc(-c3cnc4ccccc4n3)cc3ccccc23)CC1
GI50 [1]: 6.61 µM | TGI [1]: 20.7 µM | GI50 [2]: 9.5 µM | TGI [2]: > 66.3 µM | GI50 [3]: 3.67 µM | TGI [3]: 13.1 µM | GI50 [4]: > 44.8 µM | TGI [4]: > 72 µM | GI50 [5]: 4.21 µM | TGI [5]: 9.46 µM | GI50 [6]: 9.44 µM | TGI [6]: > 90.3 µM | GI50 [7]: 10.9 µM | TGI [7]: 24 µM | GI50 [8]: 7.96 µM | TGI [8]: > 55.2 µM | GI50 [9]: 2.02 µM | TGI [9]: 6.04 µM | GI50 [10]: 10.3 µM | TGI [10]: > 100 µM | GI50 [11]: 18.1 µM | TGI [11]: > 56.8 µM | GI50 [12]: 3.51 µM | TGI [12]: 8.19 µM | GI50 [13]: 2.3 µM | TGI [13]: 6.34 µM | GI50 [14]: 35.8 µM | TGI [14]: > 100 µM | GI50 [15]: 2.82 µM | TGI [15]: 7.66 µM | GI50 [16]: 3.67 µM | TGI [16]: > 49.3 µM | GI50 [17]: > 43.8 µM | TGI [17]: > 91.1 µM | GI50 [18]: 2.22 µM | TGI [18]: 5.11 µM | GI50 [19]: 3.04 µM | TGI [19]: 13 µM | GI50 [20]: 2.95 µM | TGI [20]: 9.19 µM | GI50 [21]: 3.39 µM | TGI [21]: 11.7 µM | GI50 [22]: 8 µM | TGI [22]: > 48.4 µM | GI50 [23]: > 64.6 µM | TGI [23]: > 100 µM | GI50 [24]: > 53.7 µM | TGI [24]: > 100 µM | GI50 [25]: 16.7 µM | TGI [25]: > 88.6 µM | GI50 [26]: > 46.8 µM | TGI [26]: > 100 µM | GI50 [27]: > 68.4 µM | TGI [27]: > 100 µM | GI50 [28]: 4.45 µM | TGI [28]: 9.15 µM | GI50 [29]: 2.76 µM | TGI [29]: > 69.7 µM | GI50 [30]: 15.1 µM | TGI [30]: > 67.6 µM | GI50 [31]: 1.84 µM | TGI [31]: 3.67 µM | GI50 [32]: 1.89 µM | TGI [32]: 3.91 µM | GI50 [33]: 2.17 µM | TGI [33]: 5.11 µM | GI50 [34]: 30.7 µM | TGI [34]: > 100 µM | GI50 [35]: 4.97 µM | TGI [35]: 15.1 µM | GI50 [36]: 8 µM | TGI [36]: > 51.2 µM | GI50 [37]: 10.3 µM | TGI [37]: > 100 µM | GI50 [38]: 3.53 µM | TGI [38]: 12.7 µM | GI50 [39]: 18.8 µM | TGI [39]: > 100 µM | GI50 [40]: 21.5 µM | TGI [40]: > 100 µM | GI50 [41]: > 56.8 µM | TGI [41]: > 100 µM | GI50 [42]: 2.84 µM | TGI [42]: 8.23 µM | GI50 [43]: 4.7 µM | TGI [43]: > 48.9 µM | GI50 [44]: 12.6 µM | TGI [44]: > 48.6 µM | GI50 [45]: 2.29 µM | TGI [45]: 5.27 µM | GI50 [46]: 30.8 µM | TGI [46]: > 54.7 µM | GI50 [47]: 6.47 µM | TGI [47]: > 50.3 µM | GI50 [48]: 1.88 µM | TGI [48]: 3.65 µM | GI50 [49]: 12.4 µM | TGI [49]: 31.2 µM | GI50 [50]: 39.6 µM | TGI [50]: > 79.3 µM | GI50 [51]: 9.79 µM | TGI [51]: > 100 µM | GI50 [52]: > 41.8 µM | TGI [52]: > 62.7 µM | GI50 [53]: > 36 µM | TGI [53]: > 72.9 µM | GI50 [54]: 7.39 µM | TGI [54]: > 50.4 µM | GI50 [55]: > 38.2 µM | TGI [55]: > 58.9 µM | GI50 [56]: > 32.1 µM | TGI [56]: > 100 µM | GI50 [57]: 7.88 µM | TGI [57]: 20.3 µM | GI50 [58]: > 52.1 µM | TGI [58]: > 100 µM
